This note sets out measurements from article PMC10084949, “Peptide Variant Detection by a Living Yeast Biosensor via an Epitope-Selective Protease” (Biodesign Research, 2023).

Test [1] addresses T1, ScSte2 (Saccharomyces cerevisiae, UniProt D6VTK4).
T1 construct: we cloned codon-optimized open reading frames (ORFs) of all 5 proteases and GPCRs; expressed in transfected cells; host or cells: S. cerevisiae yTC391 (from yTC370, native STE2 deleted; pTDH3-ScSTE2 genome-integrated)
Kind of test: cell-based. The note with it: SEM. Here is the method:
(§1) Glycerol stocked strains were streaked out on YPD plate and incubated for 2 days. Three colonies were picked, replated on YPD plate, incubated for 1 day, and then stored at 4 °C. For activation assays, a small scoop of yeast patch from the 3 colonies was resuspended in ~4 ml of YPD medium and incubated overnight. Overnight cells were seeded at an optical density at 600 nm (OD600) of 0.15 (as measured in 96-well plate at 200-μl volume) in SC/Glc medium after washing twice with sterile Mili-Q H2O. GPCR activity and response to increasing concentrations of synthetic peptide ligands were measured in strains carrying appropriate genome-integrated components in 96-well microtiter plates in 200-μl total volume and cultured at 30 °C and 800 rpm, unless otherwise stated. All measurements were performed in biological triplicate. Culture turbidity (OD600) and fluorescence for ymTurquoise2 (excitation, 439 nm; emission, 475 nm; gain, 75) were measured after 0 and 8 h using an Infinite 200 Pro plate reader (Tecan). Dose–response curve was measured at 11 different concentrations of the appropriate synthetic peptide ligand with a constant dilution factor and a no-peptide, H2O control. The absorbance at 600 nm normalized fluorescence values and log10-transformed peptide concentrations were fit to a 4-parameter nonlinear regression model using Prism (GraphPad) to extract GPCR-specific values for basal activation, maximal activation, EC50, and the Hill coefficient.
(§2) Statistical tests of all experiments were performed using GraphPad Prism version 7 and are detailed within the legend of each figure. In all figures, the data points represent means ± SD of biological triplicates. Curves fitted to all dose–response data were fitted in Prism 7 using the nonlinear regression: variable slope (4-parameter) curve fitting.
(§3) Changes in EC50 and activation span (maximal fluorescence activation − basal fluorescence activation) due to difference in variant peptide sequences from the wild-type peptides are depicted as ΔlogEC50 from wild-type Pep (variant peptide logEC50 − wild-type peptide logEC50) and ΔSpan from wild-type Pep (variant peptide Span – wild-type peptide Span), respectively. Apparent shift in EC50 and change in activation span in both wild-type and variant peptides due to protease expression are depicted as ΔlogEC50 with protease (peptide logEC50 with protease − peptide logEC50 without protease) and ΔSpan with protease (peptide Span with protease − peptide Span without protease), respectively.

In test [2] the target is T2, ScSte2 + ScBar1 (Saccharomyces cerevisiae, UniProt D6VTK4).
T2 construct: we cloned codon-optimized open reading frames (ORFs) of all 5 proteases and GPCRs; expressed in transfected cells; host or cells: S. cerevisiae yBB01 (from yTC370; pTDH3-ScSTE2, two pCCW12-ScBAR1 cassettes, genome-integrated)
Nature of the test: Dose-response activation of ScSte2 biosensor strain secreting ScBar1 (two copies, yBB01), fluorescent readout. It is filed as cell-based. Conditions: SEM. Here is the method:
as §1, §2, §3

T2 sequence (D6VTK4 whole entry): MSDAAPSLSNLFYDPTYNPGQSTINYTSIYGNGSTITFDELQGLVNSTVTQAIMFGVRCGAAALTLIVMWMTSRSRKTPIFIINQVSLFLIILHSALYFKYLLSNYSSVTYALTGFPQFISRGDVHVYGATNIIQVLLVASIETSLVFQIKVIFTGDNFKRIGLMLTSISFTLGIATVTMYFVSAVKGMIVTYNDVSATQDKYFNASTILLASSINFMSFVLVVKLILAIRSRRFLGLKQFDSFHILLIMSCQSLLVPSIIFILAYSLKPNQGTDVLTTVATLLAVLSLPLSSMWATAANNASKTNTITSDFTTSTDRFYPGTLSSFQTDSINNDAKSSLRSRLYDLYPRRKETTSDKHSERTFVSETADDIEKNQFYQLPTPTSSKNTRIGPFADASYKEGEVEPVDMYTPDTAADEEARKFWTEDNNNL
T1 sequence (D6VTK4 whole entry): as above

As usually defined, the EC50 is the concentration giving half of the maximal effect. On to `CSCC[C@H](NC(=O)[C@@H]1CCCN1C(=O)[C@H](CCC(N)=O)NC(=O)CNC(=O)[C@H](C)NC(=O)[C@H](CCCCN)NC(=O)[C@H](CC(C)C)NC(=O)[C@H](CCC(N)=O)NC(=O)[C@H](CC(C)C)NC(=O)[C@H](Cc1c[nH]c2ccccc12)NC(=O)[C@H](Cc1c[nH]cn1)NC(=O)[C@@H](N)Cc1c[nH]c2ccccc12)C(=O)N[C@@H](Cc1ccc(O)cc1)C(=O)O` [ScPep8A], for which the EC50 in test [1] was 79.4 nM; in test [2] it was 2510 nM.
Consider `CSCC[C@H](NC(=O)[C@@H]1CCCN1C(=O)[C@H](CCC(N)=O)NC(=O)CNC(=O)[C@@H]1CCCN1C(=O)[C@H](CCCCN)NC(=O)[C@H](CC(C)C)NC(=O)[C@H](CCC(N)=O)NC(=O)[C@H](CC(C)C)NC(=O)[C@H](Cc1c[nH]c2ccccc12)NC(=O)[C@H](C)NC(=O)[C@@H](N)Cc1c[nH]c2ccccc12)C(=O)N[C@@H](Cc1ccc(O)cc1)C(=O)O` [ScPep2A], for which the EC50 in test [1] is 79.4 nM; in test [2], 10000 nM.
On the same counts, the results for `CSCC[C@H](NC(=O)[C@@H]1CCCN1C(=O)[C@H](CCC(N)=O)NC(=O)CNC(=O)[C@@H]1CCCN1C(=O)[C@H](CCCCN)NC(=O)[C@H](CC(C)C)NC(=O)[C@H](C)NC(=O)[C@H](CC(C)C)NC(=O)[C@H](Cc1c[nH]c2ccccc12)NC(=O)[C@H](Cc1c[nH]cn1)NC(=O)[C@@H](N)Cc1c[nH]c2ccccc12)C(=O)N[C@@H](Cc1ccc(O)cc1)C(=O)O` [ScPep5A] are 50.1 nM and 501 nM.
As for `CSCC[C@H](NC(=O)[C@@H]1CCCN1C(=O)[C@H](CCC(N)=O)NC(=O)CNC(=O)[C@@H]1CCCN1C(=O)[C@H](CCCCN)NC(=O)[C@H](C)NC(=O)[C@H](CCC(N)=O)NC(=O)[C@H](CC(C)C)NC(=O)[C@H](Cc1c[nH]c2ccccc12)NC(=O)[C@H](Cc1c[nH]cn1)NC(=O)[C@@H](N)Cc1c[nH]c2ccccc12)C(=O)N[C@@H](Cc1ccc(O)cc1)C(=O)O` [ScPep6A], the EC50 is 79.4 nM in test [1] and 3160 nM in test [2].
For the compound `CC(C)C[C@H](NC(=O)[C@H](Cc1c[nH]c2ccccc12)NC(=O)[C@H](Cc1c[nH]cn1)NC(=O)[C@@H](N)Cc1c[nH]c2ccccc12)C(=O)N[C@@H](CCC(N)=O)C(=O)N[C@@H](CC(C)C)C(=O)N[C@@H](CCCCN)C(=O)N1CCC[C@H]1C(=O)NCC(=O)N[C@@H](CCC(N)=O)C(=O)N1CCC[C@H]1C(=O)N[C@@H](C)C(=O)N[C@@H](Cc1ccc(O)cc1)C(=O)O` [ScPep12A], the results for the EC50 in test [1] and in test [2] were 50.1 nM and 1000 nM, respectively.
For `CSCC[C@H](NC(=O)[C@@H]1CCCN1C(=O)[C@H](CCC(N)=O)NC(=O)CNC(=O)[C@@H]1CCCN1C(=O)[C@H](C)NC(=O)[C@H](CC(C)C)NC(=O)[C@H](CCC(N)=O)NC(=O)[C@H](CC(C)C)NC(=O)[C@H](Cc1c[nH]c2ccccc12)NC(=O)[C@H](Cc1c[nH]cn1)NC(=O)[C@@H](N)Cc1c[nH]c2ccccc12)C(=O)N[C@@H](Cc1ccc(O)cc1)C(=O)O` [ScPep7A], the EC50 was 126 nM in test [1] and 3980 nM in test [2].
As to `CSCC[C@H](NC(=O)[C@@H]1CCCN1C(=O)[C@H](CCC(N)=O)NC(=O)CNC(=O)[C@@H]1CCCN1C(=O)[C@H](CCCCN)NC(=O)[C@H](CC(C)C)NC(=O)[C@H](CCC(N)=O)NC(=O)[C@H](CC(C)C)NC(=O)[C@H](Cc1c[nH]c2ccccc12)NC(=O)[C@H](Cc1c[nH]cn1)NC(=O)[C@@H](N)Cc1c[nH]c2ccccc12)C(=O)N[C@@H](C)C(=O)O` [ScPep13A], the EC50 in test [1] is 63.1 nM; in test [2] it was 7940 nM.
Take `CSCC[C@H](NC(=O)[C@@H]1CCCN1C(=O)[C@H](C)NC(=O)CNC(=O)[C@@H]1CCCN1C(=O)[C@H](CCCCN)NC(=O)[C@H](CC(C)C)NC(=O)[C@H](CCC(N)=O)NC(=O)[C@H](CC(C)C)NC(=O)[C@H](Cc1c[nH]c2ccccc12)NC(=O)[C@H](Cc1c[nH]cn1)NC(=O)[C@@H](N)Cc1c[nH]c2ccccc12)C(=O)N[C@@H](Cc1ccc(O)cc1)C(=O)O` [ScPep10A]: the EC50 in test [1] was 126 nM; in test [2], 6310 nM.
As to `CSCC[C@H](NC(=O)[C@@H]1CCCN1C(=O)[C@H](CCC(N)=O)NC(=O)CNC(=O)[C@@H]1CCCN1C(=O)[C@H](CCCCN)NC(=O)[C@H](CC(C)C)NC(=O)[C@H](CCC(N)=O)NC(=O)[C@H](C)NC(=O)[C@H](Cc1c[nH]c2ccccc12)NC(=O)[C@H](Cc1c[nH]cn1)NC(=O)[C@@H](N)Cc1c[nH]c2ccccc12)C(=O)N[C@@H](Cc1ccc(O)cc1)C(=O)O` [ScPep4A], in test [2], the EC50 was 3980 nM.
As for `CSCC[C@H](NC(=O)[C@@H]1CCCN1C(=O)[C@H](CCC(N)=O)NC(=O)[C@H](C)NC(=O)[C@@H]1CCCN1C(=O)[C@H](CCCCN)NC(=O)[C@H](CC(C)C)NC(=O)[C@H](CCC(N)=O)NC(=O)[C@H](CC(C)C)NC(=O)[C@H](Cc1c[nH]c2ccccc12)NC(=O)[C@H](Cc1c[nH]cn1)NC(=O)[C@@H](N)Cc1c[nH]c2ccccc12)C(=O)N[C@@H](Cc1ccc(O)cc1)C(=O)O` [ScPep9A], the EC50 in test [1] was 158 nM; in test [2], 15800 nM.
`CSCC[C@H](NC(=O)[C@@H]1CCCN1C(=O)[C@H](CCC(N)=O)NC(=O)CNC(=O)[C@@H]1CCCN1C(=O)[C@H](CCCCN)NC(=O)[C@H](CC(C)C)NC(=O)[C@H](CCC(N)=O)NC(=O)[C@H](CC(C)C)NC(=O)[C@H](C)NC(=O)[C@H](Cc1c[nH]cn1)NC(=O)[C@@H](N)Cc1c[nH]c2ccccc12)C(=O)N[C@@H](Cc1ccc(O)cc1)C(=O)O` [ScPep3A]: the EC50 was 63.1 nM in test [1] and 25100 nM in test [2].
For the compound `CSCC[C@H](NC(=O)[C@@H]1CCCN1C(=O)[C@H](CCC(N)=O)NC(=O)CNC(=O)[C@@H]1CCCN1C(=O)[C@H](CCCCN)NC(=O)[C@H](CC(C)C)NC(=O)[C@H](CCC(N)=O)NC(=O)[C@H](CC(C)C)NC(=O)[C@H](Cc1c[nH]c2ccccc12)NC(=O)[C@H](Cc1c[nH]cn1)NC(=O)[C@H](C)N)C(=O)N[C@@H](Cc1ccc(O)cc1)C(=O)O` [ScPep1A], the EC50 in test [1] was 39.8 nM; in test [2], 1260 nM.
`CSCC[C@H](NC(=O)[C@H](C)NC(=O)[C@H](CCC(N)=O)NC(=O)CNC(=O)[C@@H]1CCCN1C(=O)[C@H](CCCCN)NC(=O)[C@H](CC(C)C)NC(=O)[C@H](CCC(N)=O)NC(=O)[C@H](CC(C)C)NC(=O)[C@H](Cc1c[nH]c2ccccc12)NC(=O)[C@H](Cc1c[nH]cn1)NC(=O)[C@@H](N)Cc1c[nH]c2ccccc12)C(=O)N[C@@H](Cc1ccc(O)cc1)C(=O)O` [ScPep11A]: the EC50 was 50.1 nM in test [1] and 2510 nM in test [2].
